{"source": "patent US8906855B2", "about": "“Methods and compositions for treating conditions related to lack of blood supply, shock and neuronal injuries” (Vivacelle Bio, Inc., priority 2007, dated 2014)", "key": {"[1]": {"test": "Nitric oxide uptake/content of the emulsion by mass spectrometry", "conditions": "equilibrated 60 minutes with 100 ppm nitric oxide in helium; ten samples", "procedure": "Some samples (1 ml each) were left open to air in 2.0 ml tubes for 30 minutes prior to dissolved gas analysis. In other experiments the emulsion was placed into a 15 ml tube. The headspace was filled with the gas under study and the gas was allowed to enter the emulsion by equilibration over 60 minutes with the tube on its side to increase the gas emulsion interaction. 50 μL drawn from each of these fluids were injected into a Sievers purge vessel at 37° C. containing 36 ml of a mildly acidic solution consisting of 32 ml of 1M HCL and 4 ml of 0.5M ascorbic acid. […] Signals generated at m/z=32 upon injection of RL and lipid emulsion samples were integrated using Peakfit and compared to those obtained with distilled water.\nIn another set of experiments we measured the uptake of nitric oxide by a commercially available 20% soybean oil emulsion, Liposyn III 20%. This emulsion contains 20% soybean oil, 1.2% egg phospholipids and 2.5% glycerin in water. Using NaOH pH was adjusted to 8.3. […] 100 ppm nitric oxide in helium was used to purge the headspace for two minutes taking care not to bubble the fluid. For sixty minutes the sample was allowed to reach gas-liquid equilibrium with the tube placed on its side to maximize gas-emulsion contact. The ***nitric oxide content was measured in ten samples that were equilibrated with nitric oxide and ten samples that were equilibrated with room air."}, "[2]": {"conditions": "1 atm; from The Engineering Toolbox; cited from earlier work"}, "[3]": {"conditions": "published value; cited from earlier work"}, "[4]": {"conditions": "cited from earlier work"}, "[5]": {"conditions": "Battion et al. 1968; cited from earlier work"}}}
{"molecule": "O", "note": "[Water, water]", "values": [{"measurement": "nitric oxide content, mean and standard error", "setting": "[1]", "value": "2.12×10^−3+/−0.17×10^−3"}, {"measurement": "Oxygen Content at 25° C. and Sea level Pressure", "setting": "[2]", "value": 8.3, "unit": "mg/L"}]}
{"molecule": "hemoglobin", "values": [{"measurement": "oxygen release time", "setting": "[3]", "value": 17.5, "unit": "ms"}]}
{"molecule": "[Xe]", "note": "[Xenon]", "values": [{"measurement": "minimum alveolar concentration (MAC)", "setting": "[4]; anesthetic", "value": 71, "unit": "%"}, {"measurement": "more potent than N2O as an anesthetic", "setting": "[4]; in vivo", "value": 50, "unit": "%"}]}
{"molecule": "O=O", "note": "[Oxygen]", "values": [{"measurement": "solubility in lipid relative to water", "setting": "[5]", "value": 4.41, "unit": "times"}]}
